Test results: US8629240B2, “Peptide ligands for clusterin and uses thereof” (National Research Council of Canada, priority 2009, dated 2014)
Ends that are not written are not given here. Peptide text beside a SMILES is read from it. Alexa Fluor 680 C2‑maleimide = near-infrared dye maleimide, coupled by thioether to the C-terminal Cys; DyLight 680 = DyLight 680 fluorophore

What was measured:
[1] = biological target: T1, extracellular domain of the Type II TGF-beta receptor (Homo sapiens, UniProt P37173); test: SPR specificity test with Type II TGF-beta receptor extracellular domain; type: binding; settings: receptor 38 nM to 4.5 μM over immobilized peptide
T1 construct: the extracellular domain of the Type II TGF-beta receptor
Experimental: (§1) The specificity of the clusterin-peptide interactions was investigated using SPR biosensor analysis and proteins unrelated to clusterin. Immobilization of the peptides and other proteins on the sensor chips and the SPR experiments were conducted as described in Example 4.
FIG. 8 presents SPR biosensor sensorgrams showing the interaction of the extracellular domain of the Type II TGF-beta receptor (38 nM to 4.5 μM) with immobilized P3378 (500 RUs) (FIG. 8A) or P3375 (1200 RUs) (FIG. 8B).

[2] = biological target: T2, rhCLU (recombinant human clusterin) (Homo sapiens, UniProt P10909); test: SPR biosensor analysis, rhCLU flowed over immobilized peptide; type: binding; settings: for sequence dependence of the interaction with clusterin: concluded from scrambled peptides; for binding of rhCLU to immobilized randomized peptide (Scatchard plot): randomized sequence control peptides
T2 construct: made in house; host or cells: HEK-293 cells
Source text: Peptides were immobilized on research-grade CM5 sensor chips by a maleimide coupling method. CM5 sensor chips (research grade) and EDC were purchased from Biosensor AB (Uppsala, Sweden). This thiol coupling generates a stable thioether bond between reactive maleimide groups on the sensor chip surface and the thiol groups of the peptides. A heterobifunctional reagent, SMCC-hydrazide (4-[N-maleimidomethyl]cyclohexane-1 carboxylhydrazide; 99.5% pure; purchased from Molecular Biosciences Inc. (Boulder, Colo.)), was used to introduce reactive maleimido groups to the sensor surface. Immobilization was performed at 25° C. at a flow rate of 5 μL/min. A continuous flow of the HBS-EP buffer (20 mM HEPES, 150 mM NaCl, 3.4 mM EDTA and 0.05% Tween™-20 at pH 7.4) was maintained over the sensor surface. The carboxylated dextran matrix on the sensor surface was activated by an injection of 50 μL of a freshly mixed solution containing 172 μL of 1.2 mM […] (EDC) in 100 mM MES buffer at pH 5.00, and 28 μL of 17.8 mM SMCC-hydrazide in 40% DMF. The ratio of the SMCC:EDC was 2.5:1. Peptide-coupled surfaces were generated by injecting peptides (30-100 μg/ml) in 100 mM MES buffer (at pH 5.0). The amount of peptide immobilized on the activated surface was controlled by altering the contact time with the peptide solution and was between approximately 400 and 500 RU, or 400-500 pg peptide/mm^2. The immobilization procedure was completed by a 50 μL injection of 50 mM cysteine in 1 M sodium chloride and 0.1M sodium acetate (pH 4) to quench excess active maleimide groups.
Protein-peptide interactions were followed using a BIAcore 3000 instrument (Biosensor AB, Uppsala, Sweden). All binding experiments were carried out at 25° C. under a continuous flow of the HBS-EP buffer (20 mM HEPES, 150 mM NaCl, 3.4 mM EDTA and 0.05% Tween-200) at pH 7.4 over the sensor surface at a flow rate of 20 μL/min. Different concentrations of rh-clusterin in the HBS-EP buffer were injected over the peptide-derivatized sensor chips. Dissociation was monitored for up to 300 s post-injection. The surfaces were fully regenerated by 15 s injection of an HBS-EP buffer solution containing 5 mM NaOH. […] Reference responses from control flow cells, containing unmodified dextran surfaces, were subtracted from peptide-containing flow cells, for each analyte injection using the BiaEvaluation software version 3.0 (Biacore AB, Uppsala, Sweden).
The resulting sensorgrams were used for kinetic rate determination through global fitting of the experimental data to a simple 1:1 Langmuir binding model. […] Affinity data (KD) from the binding studies were obtained by plotting the response in RU at the steady state, Req, versus the concentration of clusterin, C, and by fitting these curves to a one-site binding model, Req=C*xRmax/(C+KD) where Rmax is the value in RU at saturation and Req is the observed optical change in RU at each given C.

[3] = biological target: T3, rh-clusterin (Homo sapiens, UniProt P10909); test: STD-NMR binding of synthetic peptides to rh-clusterin; settings: ~1:30 protein:peptide, 298K
T3 construct: made in house; host or cells: HEK-293 cells
Experimental: To confirm direct binding of the peptides of Example 1 to clusterin, the interaction of the synthetic peptides of Example 2 with clusterin was tested using Nuclear Magnetic Resonance Saturation Transfer Difference (STD-NMR; Mayer & Meyer, 2001)
NMR samples were prepared by dissolving 0.15 mM of peptides in 50 mM sodium phosphate buffer, 0.2 mM EDTA, pH 6.5. rh-clusterin (˜1 mg/ml) in 5 mM sodium phosphate buffer, 0.02 mM EDTA, pH 7.4, was added to ˜1:30 protein:peptide ratio.
All NMR experiments were performed at 298K on a Bruker Avance800™ NMR spectrometer equipped with a 5 mm triple-resonance probe with three-axis gradients. Saturation transfer difference (STD) spectra was recorded using WATERGATE version of STD pulse sequence (35) with a 3 s selective saturation pulse applied in the relaxation delay and a 20 ms spinlock pulse with a field strength of 12.25 kHz. The saturation pulse was implemented using a pulse train of 49 ms Gaussian-shaped selective pulse and 1 ms interpulse delay. Each Gaussian-shaped pulse had 1000 points with a 1% truncation and was applied with a field strength of 75.9 Hz. STD spectra were recorded with a spectral width of 16025.64 Hz and 32 K data points. Time domain signals were accumulated with 1024 and 4096 scans for the free and complexed sample, respectively. NMR data were processed using Bruker Xwinnmr 2.6. An exponential weighting function of 7 Hz was applied prior to Fourier transformation and polynomial baseline correction.
NMR signals of peptide P3378 and rh-clusterin were severely overlapped, making it impossible to apply the above saturation pulse exclusively on rh-clusterin resonances without disturbing those of the peptide. In order to identify the binding interactions in the P3378-rh-clusterin complex, a new experimental scheme was implemented by applying the on-resonance saturation pulse at methyl resonances (0.912 ppm) and the off-resonance irradiation at −7.799 ppm (referenced H2O to 4.700 ppm). […]

[4] = biological target: T4, epidermal growth factor ectodomain (EGFR-ED) (Homo sapiens, UniProt P00533); test: SPR specificity test with EGFR ectodomain; type: binding; settings: EGFR-ED 70 nM to 5.63 μM over immobilized peptide
T4 construct: the epidermal growth factor ectodomain (EGFR-ED)
Experimental: as §1

[5] = system: 4T1 tumor
Experimental: As a model system, 4T1 mouse mammary carcinoma cell line cells were used to generate tumors in syngeneic BALB/c mice. […] Six to eight weeks old female BALB/c mice were obtained from Charles River. […] A 50 μl 1:1 solution of sterile Matrigel and saline, or the same solution containing 4T1 mouse mammary tumor cells (5×10^6 cells), was injected subcutaneously into the right hind thigh of the animal. Clippers and Nair were used to remove hair from the injection site as well as the lower back and the left thigh of the animals prior to the Matrigel and tumor cell injections. When tumors measured ˜0.5 to 0.8 cm in diameter (6-8 days), the tumor-bearing mice were subjected to in vivo imaging.
Animals were imaged using the following procedures. Animals were anesthetized using isoflurane (3% in O2 at 2 L/min). Prior to the injection of the labeled peptides, animals were subjected to a full body scan to obtain a background fluorescence image. P3378-Alexa680 or P3378R-Alexa680 was administered (25 nmol in 100 μL sterile saline) via the tail vein using a 0.5-ml insulin syringe with a 27-gauge fixed needle. Immediately after, the animal was placed on the heated animals plate (39° C.) of the ART eXplore Optix MX2 imaging system (Advanced Research Technologies, Montreal, Canada). Laser power and counting time per pixel were optimized at 9.6 μW and 0.5 s, respectively. These values remained constant during the entire experiment. The raster scan interval was set at 1.5 mm and was held constant during the acquisition of each image. The data were recorded as Temporal Point-Spread Functions (TPSF), and fluorescence intensity and fluorescence lifetime maps were generated. All images were analyzed using the ART Optix OptiView™ software. Volume data and 3D images were reconstructed using the ART OptiView™ 3D Reconstruction Software Module. All animals were euthanized after the imaging experiments.
Animals were imaged in the ART Optix MX2 small animal imager using three approaches: • a. Mice were injected intravenously (i.v.) via the tail vein with either 5 nanomoles of P3378 peptide labeled with Alexa680, or P3378R peptide labeled with Alexa680; • b. Mice were injected intravenously (i.v.) via the tail vein with either 25 nanomoles of P3378 peptide labeled with Alexa680, or P3378R peptide labeled with Alexa680; • c.

[6] = system: 4T1 tumor and organs (liver, spleen, pancreas, kidney, heart, lungs); test: Confocal microscopy of probe distribution in 4T1 tumor and organs; type: in vivo, mouse; settings: 25 nmoles, 15 min post-injection, frozen sections
Experimental: Confocal microscopy was used to evaluate the distribution of the P3378-DL680 probe in the 4T1 tumor and various organs (liver, spleen, pancreas, kidney, heart, lungs), harvested 15 min post-injection. […] DAPI staining of the nuclei was used to visualize tissue morphology.

[7] = system: 4T1 tumor; test: In vivo blocking experiment with excess unlabeled peptide; parameters: species or system mouse
Experimental: To further validate the specificity of the in vivo targeting ability of the P3378-DL680 probe, a blocking experiment using an excess of unlabeled P3378 peptide was carried out. Mice received 25 nmoles of P3378-DL680 alone (n=1) or in combination with 5 μmoles unlabeled P3378 or P3378R peptide (both n=2) in 100 μL sterile saline. Animals in the control groups received 25 nmoles of P3378-DL680 with or without 5 μmoles of the unlabeled scrambled P3378R peptide, whereas the experimental animals were injected with 25 nmoles of P3378-DL680 in combination with 5 μmoles of unlabeled P3378 peptide. […] Furthermore, using the gated NIRF lifetime and the OptiView 3D reconstruction module we selected in each mouse the slice along the Z-axis that contained the highest concentration of P3378-DL680 and determined its relative concentration.

[8] = global fit, one-to-one Langmuir binding model, 25° C.

T2 sequence (P10909 23-227 limits assumed): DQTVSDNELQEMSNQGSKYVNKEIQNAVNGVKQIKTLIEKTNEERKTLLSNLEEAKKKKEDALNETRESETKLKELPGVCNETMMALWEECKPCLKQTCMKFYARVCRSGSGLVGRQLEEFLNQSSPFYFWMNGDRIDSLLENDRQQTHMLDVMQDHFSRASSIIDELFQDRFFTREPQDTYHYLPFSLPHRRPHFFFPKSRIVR
T2 sequence (P10909 228-449 limits assumed): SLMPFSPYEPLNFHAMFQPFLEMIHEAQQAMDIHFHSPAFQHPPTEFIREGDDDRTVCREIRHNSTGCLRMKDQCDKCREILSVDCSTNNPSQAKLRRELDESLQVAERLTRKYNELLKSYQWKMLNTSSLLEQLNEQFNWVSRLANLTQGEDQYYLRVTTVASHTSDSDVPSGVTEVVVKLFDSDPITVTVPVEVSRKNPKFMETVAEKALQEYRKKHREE
T3 sequence (P10909 23-227 limits assumed): as the sequence (P10909 23-227 limits assumed) above
T3 sequence (P10909 228-449 limits assumed): as the sequence (P10909 228-449 limits assumed) above
T4 sequence (P00533 25-645 limits assumed): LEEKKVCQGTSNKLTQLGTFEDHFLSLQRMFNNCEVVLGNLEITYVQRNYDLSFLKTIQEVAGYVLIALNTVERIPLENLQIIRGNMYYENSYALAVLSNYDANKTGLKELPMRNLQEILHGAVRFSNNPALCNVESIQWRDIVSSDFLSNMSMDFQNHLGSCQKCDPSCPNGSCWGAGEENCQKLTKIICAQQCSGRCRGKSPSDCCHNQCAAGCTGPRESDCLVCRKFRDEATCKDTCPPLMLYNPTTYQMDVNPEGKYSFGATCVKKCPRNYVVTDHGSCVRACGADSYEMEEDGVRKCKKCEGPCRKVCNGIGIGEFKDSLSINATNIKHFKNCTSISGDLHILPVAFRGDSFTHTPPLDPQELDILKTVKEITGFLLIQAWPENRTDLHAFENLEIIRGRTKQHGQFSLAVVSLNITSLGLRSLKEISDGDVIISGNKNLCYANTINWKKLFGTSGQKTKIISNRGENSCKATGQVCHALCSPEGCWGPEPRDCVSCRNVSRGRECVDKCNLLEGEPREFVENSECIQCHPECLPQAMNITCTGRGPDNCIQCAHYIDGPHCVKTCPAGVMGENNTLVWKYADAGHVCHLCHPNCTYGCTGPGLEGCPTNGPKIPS
T1 sequence (P37173 23-166 limits assumed): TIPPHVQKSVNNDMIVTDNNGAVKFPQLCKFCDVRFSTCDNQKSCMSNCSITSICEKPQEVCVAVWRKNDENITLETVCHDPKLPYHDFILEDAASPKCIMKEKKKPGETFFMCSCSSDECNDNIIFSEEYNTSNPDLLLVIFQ

Molecule: CC(C)C[C@H](NC(=O)[C@H](CCC(N)=O)NC(=O)[C@H](CO)NC(=O)[C@H](Cc1c[nH]c2ccccc12)NC(=O)[C@H](Cc1ccc(O)cc1)NC(=O)[C@@H](NC(=O)[C@@H](N)CC(N)=O)[C@@H](C)O)C(=O)N[C@@H](CC(C)C)C(=O)N[C@@H](Cc1c[nH]cn1)C(=O)N[C@@H](Cc1ccccc1)C(=O)N[C@@H](CCC(N)=O)C(=O)N[C@H](C(=O)N[C@@H](CO)C(=O)NCC(=O)N[C@@H](CO)C(=O)NCC(=O)N[C@@H](CS)C(=O)O)[C@@H](C)O [P3375]
- interaction with Type II TGF-beta receptor [1]: no significant signal was observed
- sequence dependence of the interaction with clusterin [2]: not peptide sequence specific
- koff [2, 8]: 0.006 ± 0.0002 s⁻¹
- kon [2, 8]: 11200 M⁻¹ s⁻¹
- binding to clusterin by STD-NMR [3]: confirmed
- binding to EGFR-ED [4]: do not bind specifically

Molecule: CC(C)C[C@H](NC(=O)[C@@H]1CCCN1C(=O)[C@H](CC(C)C)NC(=O)[C@H](C)NC(=O)[C@H](Cc1c[nH]cn1)NC(=O)[C@@H](N)CO)C(=O)N[C@H](C(=O)N[C@@H](Cc1c[nH]c2ccccc12)C(=O)N[C@@H](CO)C(=O)N[C@H](C(=O)N[C@@H](C)C(=O)N[C@@H](C)C(=O)N[C@@H](CO)C(=O)NCC(=O)N[C@@H](CO)C(=O)NCC(=O)N[C@@H](CS)C(=O)O)[C@@H](C)O)[C@@H](C)O [P3376, SHALPLTWSTAA]
- sequence dependence of the interaction with clusterin [2]: not peptide sequence specific
- binding to clusterin by STD-NMR [3]: confirmed

Molecule: CC(C)C[C@H](NC(=O)[C@H](Cc1ccc(O)cc1)NC(=O)[C@@H]1CCCN1)C(=O)N[C@@H](Cc1c[nH]cn1)C(=O)N[C@@H](CCC(N)=O)C(=O)N[C@@H](CO)C(=O)N1CCC[C@H]1C(=O)N[C@@H](Cc1c[nH]cn1)C(=O)N[C@@H](Cc1c[nH]c2ccccc12)C(=O)N[C@@H](CCCCN)C(=O)N1CCC[C@H]1C(=O)N[C@@H](CO)C(=O)N[C@@H](CO)C(=O)NCC(=O)N[C@@H](CO)C(=O)NCC(=O)N[C@@H](CS)C(=O)O [P3378R, PYLHQSPHWKPSSGSGC, reference compound] (H-PYLHQSPHWKPSSGSGC-OH)
- accumulation in the kidneys ([5]; mouse, in vivo): faster accumulation

Molecule: AWHTLASTSLAPSGSGC (Randomized control for P3376) [P3376R, randomized version of P3376, reference compound]
- binding of rhCLU to immobilized randomized peptide (Scatchard plot) [2]: bound

Molecule: LSLYHTNTQFWQSGSGC (Randomized control for P3375) [P3375R, randomized version of P3375, reference compound]
- binding of rhCLU to immobilized randomized peptide (Scatchard plot) [2]: bound

Molecule: P3378-Alexa680: P3378 peptide labeled with Alexa Fluor 680 C2-maleimide (HPLSKHPYWSQPSGSGC(Alexa Fluor 680 C2‑maleimide))
- accumulation in the tumor (as well as kidney and bladder) ([5]; 5 or 25 nanomoles i.v., Alexa680 label): accumulation

Molecule: P3378-DL680: P3378 peptide labeled with Dylight680 fluorophor (HPLSKHPYWSQPSGSGC(DyLight 680))
- uptake of the fluorescent probe in the 4T1 tumor [6]: specific uptake and accumulation
- relative concentration of the probe at the tumor site ([7]; in the presence of excess scrambled P3378R peptide vs probe alone): only slightly affected
- relative concentration of the probe at the tumor site, times lower ([7]; in the presence of excess unlabeled P3378 peptide vs probe alone): 3-4 times
